From ChEMBL document CHEMBL5143687, “Design, synthesis and biological evaluation of hydrogen sulfide-releasing isochroman-4-one derivatives as new antihypertensive agent candidates” (Bioorg Med Chem, 2022) come the findings set out here.

Data set [1] concerns Aortic ring. As to the kind of experiment: Vasorelaxant activity in Sprague-Dawley rat aortic rings assessed as reduction in noradrenaline-induced contractions at 10 uM relative to control. The class given is functional, Thoracic aorta. More on the design: scale not given: the % may be the effect or the level left.
Data set [2] relates to Aortic ring. Kind of data set: Vasorelaxant activity in Sprague-Dawley rat aortic rings assessed as reduction in noradrenaline-induced contractions at 100 uM relative to control. The class given is functional, Thoracic aorta. More on the design: scale not given: the % may be the effect or the level left.
Data set [3] concerns Aortic ring. As to the kind of experiment: Vasorelaxant activity in Sprague-Dawley rat aortic rings assessed as reduction in noradrenaline-induced contractions. The class given is functional, tissue-based. The following applies: Thoracic aorta, DDE = dose-dependent effect.
Another data set has as its system CHO. As to the kind of experiment: Cytotoxicity against CHO cells assessed as cell viability at 100 uM after 24 hrs MTT assay. The class given is toxicity, cell-based, Cricetulus griseus. The following applies: chinese hamster. (Tetrazolium dyes change colour on reduction, which living cells bring about.)
The test system of data set [4] is Rattus norvegicus. As to the kind of experiment: Antihypertensive activity in spontaneous hypertensive rat model assessed as systolic blood pressure at 80 mg/kg, po measured after 1 hr by tail cuff method (reference value: 186.1 +/- 4.6 mmHg). The class given is functional.
Data set [5] has as its system Rattus norvegicus. Kind of data set: Antihypertensive activity in spontaneous hypertensive rat model assessed as systolic blood pressure at 80 mg/kg, po measured after 2 hr by tail cuff method (reference value: 186.1 +/- 4.6 mmHg). The class given is functional.
The subject of data set [6] is Rattus norvegicus. As to the kind of experiment: Antihypertensive activity in spontaneous hypertensive rat model assessed as systolic blood pressure at 80 mg/kg, po measured after 4 hr by tail cuff method (reference value: 186.1 +/- 4.6 mmHg). The class given is functional.
Data set [7] relates to Rattus norvegicus. Kind of data set: Antihypertensive activity in spontaneous hypertensive rat model assessed as systolic blood pressure at 80 mg/kg, po measured after 6 hr by tail cuff method (reference value: 186.1 +/- 4.6 mmHg). The class given is functional.
The subject of data set [8] is Rattus norvegicus. As to the kind of experiment: Antihypertensive activity in spontaneous hypertensive rat model assessed as systolic blood pressure at 80 mg/kg, po measured after 8 hr by tail cuff method (reference value: 186.1 +/- 4.6 mmHg). The class given is functional.
Data set [9] is described as follows: Prodrug conversion in sodium phosphate buffer assessed as H2S release in presence of L-cysteine by UV-Vis spectrophotometry. The class given is ADME.
Data set [10] has as its system Rattus norvegicus. As to the kind of experiment: Antihypertensive activity in spontaneous hypertensive rat model assessed as systolic blood pressure at 40 mg/kg, po measured after 1 hr by tail cuff method (reference value: 186.1 +/- 4.6 mmHg). The class given is functional.
For data set [11], the system named is Rattus norvegicus. As to the kind of experiment: Antihypertensive activity in spontaneous hypertensive rat model assessed as systolic blood pressure at 40 mg/kg, po measured after 2 hr by tail cuff method (reference value: 186.1 +/- 4.6 mmHg). The class given is functional.
Data set [12] relates to Rattus norvegicus. As to the kind of experiment: Antihypertensive activity in spontaneous hypertensive rat model assessed as systolic blood pressure at 40 mg/kg, po measured after 4 hr by tail cuff method (reference value: 186.1 +/- 4.6 mmHg). The class given is functional.
The subject of data set [13] is Rattus norvegicus. Kind of data set: Antihypertensive activity in spontaneous hypertensive rat model assessed as systolic blood pressure at 40 mg/kg, po measured after 6 hr by tail cuff method (reference value: 186.1 +/- 4.6 mmHg). The class given is functional.
In data set [14] the test system is Rattus norvegicus. Kind of data set: Antihypertensive activity in spontaneous hypertensive rat model assessed as systolic blood pressure at 40 mg/kg, po measured after 8 hr by tail cuff method (reference value: 186.1 +/- 4.6 mmHg). The class given is functional.

SMILES strings stand for the structures.

`COc1cc2c(cc1OCCCOc1ccc(C(N)=S)cc1)C(=O)C(C)OC2` (centres undefined): the Activity was 45.4% in the data set on Aortic ring [1], 61.8% in the data set with Aortic ring [2], “Dde” in the data set on Aortic ring [3] and “Non-Toxic” in the data set with CHO.

In the case of `COc1ccc2c(c1O)COC(C)C2=O` (centres undefined), the Activity is recorded as 4.3% in the data set on Aortic ring [1] and 50.7% in the data set with Aortic ring [2].

Regarding `COc1cc2c(cc1OCCCCCCOc1ccc(C(N)=S)cc1)C(=O)C(C)OC2` (centres undefined), the Activity in the data set on Aortic ring [1] was 49.6%; with Aortic ring [2], 66.7%; in the data set on Aortic ring [3], “Dde”; with Rattus norvegicus [4] it was 170.2 mmHg; in the data set on Rattus norvegicus [5], 137.4 mmHg; with Rattus norvegicus [6], 142.2 mmHg. Further, the Activity is listed as 153.6 mmHg in the data set with Rattus norvegicus [7], 169.4 mmHg with Rattus norvegicus [8], “Active” in data set [9] and “Non-Toxic” in the data set with CHO.

For `COc1ccc2c(c1OCCCOc1ccc(-c3cc(=S)ss3)cc1)COC(C)C2=O` (centres undefined), the figures for the Activity in the data set with Aortic ring [1] and in the data set with Aortic ring [2] were 5.4% and 9.2%, respectively.

For `COc1ccc2c(c1OCCCCCOc1ccc(C(N)=S)cc1)COC(C)C2=O` (centres undefined), the Activity in the data set with Aortic ring [1] was 30.2%; in the data set on Aortic ring [2], 55.4%; in the data set on Aortic ring [3] it was “Dde”; in data set [9] it was “Active”; in the data set with CHO, “Non-Toxic”.

With `COc1ccc2c(c1OCCCCCCCCOc1ccc(C(N)=S)cc1)COC(C)C2=O` (centres undefined), the Activity was 25% in the data set with Aortic ring [1]; 56.9% in the data set on Aortic ring [2]; “Dde” in the data set with Aortic ring [3]; “Active” in data set [9]; “Non-Toxic” in the data set on CHO.

Consider `COc1cc2c(cc1OCCCCCCCCOc1ccc(C(N)=S)cc1)C(=O)C(C)OC2` (centres undefined), for which the Activity in the data set with Aortic ring [1] amounted to 19.9%; in the data set with Aortic ring [2], 31.2%.

`COc1cc2c(cc1OCCCCCCCCCCCCOc1ccc(C(N)=S)cc1)C(=O)C(C)OC2` (centres undefined): the results for the Activity in the data set on Aortic ring [1] and in the data set with Aortic ring [2] were 2.2% and 12.5%, respectively.

On to `COc1ccc2c(c1OCCCCCCOc1ccc(C(N)=S)cc1)COC(C)C2=O` (centres undefined), for which the Activity is 20% with Aortic ring [1] and 31.1% in the data set with Aortic ring [2].

With `COc1ccc2c(c1OCCOc1ccc(C(N)=S)cc1)COC(C)C2=O` (centres undefined), the Activity worked out at 19.8% in the data set with Aortic ring [1] and 31.4% in the data set with Aortic ring [2].

Consider `COc1ccc2c(c1OCCOc1ccc(-c3cc(=S)ss3)cc1)COC(C)C2=O` (centres undefined), for which the Activity is reported as 5.5% in the data set with Aortic ring [1] and 18.2% in the data set on Aortic ring [2].

With `COc1ccccc1N1CCN(CC(O)COc2cccc3ccccc23)CC1` (centres undefined) [NAFTOPIDIL], the Activity with Rattus norvegicus [10] was determined as 161.4 mmHg; with Rattus norvegicus [11], 148.1 mmHg; with Rattus norvegicus [12], 153.7 mmHg; in the data set on Rattus norvegicus [13], 158.2 mmHg; in the data set on Rattus norvegicus [14], 170.5 mmHg.

Take `COc1ccc2c(c1OCCCCOc1ccc(C(N)=S)cc1)COC(C)C2=O` (centres undefined): the Activity in the data set with Aortic ring [1] came out at 2.9%; in the data set with Aortic ring [2], 35.1%.

`COc1ccc2c(c1OCCCCCCCCCCCCOc1ccc(C(N)=S)cc1)COC(C)C2=O` (centres undefined): the Activity was 12.6% with Aortic ring [1] and 25% in the data set on Aortic ring [2].

As for `COc1cc2c(cc1O)C(=O)C(C)OC2` (centres undefined), the results for the Activity in the data set with Aortic ring [1] and in the data set with Aortic ring [2] were 0.4% and 6.5%, respectively.

Consider `COc1cc2c(cc1OCCCCCOc1ccc(C(N)=S)cc1)C(=O)C(C)OC2` (centres undefined), for which the results for the Activity in the data set on Aortic ring [1] and with Aortic ring [2] were 6.6% and 28.2%, respectively.

`CC1OCc2c(ccc(O)c2O)C1=O` (racemic): the Activity is reported as 170.9 mmHg in the data set with Rattus norvegicus [4]; 165.4 mmHg in the data set on Rattus norvegicus [5]; 151.5 mmHg with Rattus norvegicus [6]; 140.1 mmHg in the data set on Rattus norvegicus [7]; 150.6 mmHg with Rattus norvegicus [8].

For the compound `[Na+].[SH-]` [SODIUM HYDROSULFIDE], the Activity with Aortic ring [1] is given as 18.7%; in the data set with Aortic ring [2], 52.9%.

Regarding `COc1ccc2c(c1OCCCOc1ccc(C(N)=S)cc1)COC(C)C2=O` (centres undefined), the Activity was determined as 3.7% in the data set with Aortic ring [1] and 15.7% with Aortic ring [2].

For the compound `COc1cc2c(cc1OCCCCOc1ccc(C(N)=S)cc1)C(=O)C(C)OC2` (centres undefined), the Activity with Aortic ring [1] is 5.1%; in the data set on Aortic ring [2] it was 4.3%.

`NC(=S)c1ccc(O)cc1`: the Activity came to 1.7% in the data set on Aortic ring [1] and 17.3% with Aortic ring [2].
